PubChem BioAssay AID248 (DTP/NCI, 2004)
Values joined by “and” are separate entries in the source; they are usually repeats but may differ in a detail not shown here. Equal values may be shown once. Toxic doses and inconclusive results are not listed. No stated cut-off is given here; in the data, active means T/C of 150% or more; inactive means T/C below 125%.

System: L1210 leukemia ip in BDF1 mice, survival T/C
Experiment: NCI In Vivo Anticancer Drug Screen. Data for tumor model L1210 Leukemia (intraperitoneal) in B6D2F1 (BDF1) mice
Details: endpoint: mean survival time, higher = longer survival
In short: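 Transplanted-tumor mice were given test agent; controls received vehicle only. Survival readings from the two groups were divided (treated over control).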

[1] = dose: 50.0 mg/kg/injection, schedule: Q01DX001 (ip), vehicle: carboxymethylcellulose (CMC)
[2] = dose: 100.0 mg/kg/injection, schedule: Q01DX001 (ip), vehicle: carboxymethylcellulose (CMC)
[3] = dose: 200.0 mg/kg/injection, schedule: Q01DX001 (ip), vehicle: carboxymethylcellulose (CMC)
[4] = dose: 100.0 mg/kg/injection, schedule: Q04DX003 (ip), vehicle: saline with Tween-80
[5] = dose: 200.0 mg/kg/injection, schedule: Q04DX003 (ip), vehicle: saline with Tween-80
[6] = dose: 400.0 mg/kg/injection, schedule: Q04DX003 (ip), vehicle: saline with Tween-80
[7] = dose: 100.0 mg/kg/injection, schedule: Q01DX009 (ip), vehicle: Klucel (hydroxypropylcellulose) (HPC)
[8] = dose: 200.0 mg/kg/injection, schedule: Q01DX009 (ip), vehicle: Klucel (hydroxypropylcellulose) (HPC)
[9] = dose: 400.0 mg/kg/injection, schedule: Q01DX009 (ip), vehicle: Klucel (hydroxypropylcellulose) (HPC)
[10] = dose: 12.5 mg/kg/injection, schedule: Q01DX009 (ip), vehicle: Klucel (hydroxypropylcellulose) (HPC)
[11] = dose: 25.0 mg/kg/injection, schedule: Q01DX009 (ip), vehicle: Klucel (hydroxypropylcellulose) (HPC)
[12] = dose: 100.0 mg/kg/injection, schedule: Q04DX002 (ip), vehicle: Klucel (hydroxypropylcellulose) (HPC)
[13] = dose: 200.0 mg/kg/injection, schedule: Q04DX002 (ip), vehicle: Klucel (hydroxypropylcellulose) (HPC)
[14] = dose: 400.0 mg/kg/injection, schedule: Q04DX002 (ip), vehicle: Klucel (hydroxypropylcellulose) (HPC)
[15] = dose: 100.0 mg/kg/injection, schedule: Q01DX009 (ip), vehicle: saline with Tween-80
[16] = dose: 200.0 mg/kg/injection, schedule: Q01DX009 (ip), vehicle: saline with Tween-80
[17] = dose: 400.0 mg/kg/injection, schedule: Q01DX009 (ip), vehicle: saline with Tween-80
[18] = dose: 100.0 mg/kg/injection, schedule: Q01DX001 (ip), vehicle: saline
[19] = dose: 50.0 mg/kg/injection, schedule: Q01DX009 (ip), vehicle: Klucel (hydroxypropylcellulose) (HPC)
[20] = dose: 100.0 mg/kg/injection, schedule: Q04DX003 (ip), vehicle: Klucel (hydroxypropylcellulose) (HPC)
[21] = dose: 75.0 mg/kg/injection, schedule: Q01DX001 (ip), vehicle: saline
[22] = dose: 150.0 mg/kg/injection, schedule: Q01DX001 (ip), vehicle: saline

Measured: T/C

C/C=C/Sc1ccccc1C(=O)O
inactive: [1] 104 % of control | [2] 100 % of control | [3] 104 % of control

CC(=O)Nc1ccc(/C=C(\C#N)c2ccc(C)cc2)cc1
inactive: [4] 87 % of control | [5] 90 % of control | [6] 101 % of control

O=C(Nc1ccccc1F)OC/C=C/c1ccccc1
inactive: [7] 104 % of control | [8] 97 % of control | [9] 95 % of control

CCOC(=O)c1cc([N+](=O)[O-])ccc1N=Nc1cc(OC)c(N)cc1OC
inactive: dose: 100.0 mg/kg/injection, schedule: Q01DX001 (ip), vehicle: other 111 % of control | dose: 200.0 mg/kg/injection, schedule: Q01DX001 (ip), vehicle: other 103 % of control | dose: 400.0 mg/kg/injection, schedule: Q01DX001 (ip), vehicle: other 103 % of control

O=P(c1ccc(F)cc1)(c1ccc(F)cc1)c1ccc(F)cc1
inactive: [10] 101 % of control | [11] 103 % of control

CC(=O)/C=C1\C(=O)Nc2ccccc21
inactive: [12] 104 % of control | [13] 89 % of control | [14] 91 % of control

O=C(CCCCC(=O)NO)NO
inactive: dose: 100.0 mg/kg/injection, schedule: Q04DX002 (ip), vehicle: saline with Tween-80 110 % of control | dose: 100.0 mg/kg/injection, schedule: Q04DX002 (ip), vehicle: saline 103 % of control | dose: 200.0 mg/kg/injection, schedule: Q04DX002 (ip), vehicle: saline with Tween-80 110 % of control | dose: 200.0 mg/kg/injection, schedule: Q04DX002 (ip), vehicle: saline 90 % of control | dose: 400.0 mg/kg/injection, schedule: Q04DX002 (ip), vehicle: saline with Tween-80 107 % of control | dose: 400.0 mg/kg/injection, schedule: Q04DX002 (ip), vehicle: saline 107 % of control

Nc1ccccc1SC1CC(=O)N(c2ccccc2Cl)C1=O (stereo unspecified)
inactive: [15] 98 % of control | [16] 95 % of control | [17] 97 % of control

O=C(O)/C=C/c1nc2ccccc2nc1-c1ccccc1
inactive: [12] 101 % of control | [13] 113 % of control | [14] 101 % of control

Cc1ccc(C(=O)C=C(C(F)(F)F)C(F)(F)F)cc1
inactive: dose: 6.25 mg/kg/injection, schedule: Q04DX003 (ip), vehicle: saline 94 % of control | dose: 12.5 mg/kg/injection, schedule: Q04DX003 (ip), vehicle: saline 96 % of control | dose: 25.0 mg/kg/injection, schedule: Q04DX003 (ip), vehicle: saline 103 % of control

CC(=O)OCC(OC(C)=O)C(OC(C)=O)C(Cn1c(=O)cc(C)c2ccc(C)c(C)c21)OC(C)=O (stereo unspecified)
inactive: [18] 88 % of control | dose: 200.0 mg/kg/injection, schedule: Q01DX001 (ip), vehicle: saline 93 % of control | dose: 400.0 mg/kg/injection, schedule: Q01DX001 (ip), vehicle: saline 88 % of control

CS(=O)(=O)n1c(CBr)nc2ccccc21
inactive: dose: 100.0 mg/kg/injection, schedule: Q04DX003 (ip), vehicle: saline sonified 103 % of control | dose: 200.0 mg/kg/injection, schedule: Q04DX003 (ip), vehicle: saline sonified 88 % of control

CC(C)(C)NCC(CN(CC(CNC(C)(C)C)C(=O)c1ccccc1)C(C)(C)C)C(=O)c1ccccc1 (stereo unspecified)
inactive: [10] 104 % of control | [11] 101 % of control | [19] 106 % of control | [20] 93 % of control

CCCCC(CC)COC(C)=O (stereo unspecified)
inactive: [15] 94 % of control | [4] 98 % of control | [16] 102 % of control | [5] 93 % of control | [17] 91 % of control | [6] 92 % of control

O=C(CBr)NCC(S)c1ccc(Cl)cc1 (stereo unspecified)
inactive: [19] 97 % of control | [7] 95 % of control | [20] 93 % of control | dose: 200.0 mg/kg/injection, schedule: Q04DX003 (ip), vehicle: Klucel (hydroxypropylcellulose) (HPC) 88 % of control | dose: 400.0 mg/kg/injection, schedule: Q04DX003 (ip), vehicle: Klucel (hydroxypropylcellulose) (HPC) 102 % of control

NC(=O)N/N=C(\CBr)c1ccc(Br)cc1
inactive: dose: 100.0 mg/kg/injection, schedule: Q01DX009 (ip), vehicle: saline 93 % of control

CCCCCCCCCCCCCCCCCCNc1nc(SC)ncc1C(=O)OCC
inactive: dose: 25.0 mg/kg/injection, schedule: Q01DX001 (ip), vehicle: saline 103 % of control | dose: 50.0 mg/kg/injection, schedule: Q01DX001 (ip), vehicle: saline 102 % of control | [18] 101 % of control and 102 % of control

CCOC(=S)c1ccc(S(=O)(=O)Nc2ccccc2)cc1
inactive: dose: 100.0 mg/kg/injection, schedule: Q01DX001 (ip), vehicle: saline with Tween-80 100 % of control | dose: 200.0 mg/kg/injection, schedule: Q01DX001 (ip), vehicle: saline with Tween-80 97 % of control | dose: 400.0 mg/kg/injection, schedule: Q01DX001 (ip), vehicle: saline with Tween-80 95 % of control

CC(=O)NC1CONC1=O (stereo unspecified)
inactive: [4] 98 % of control | [5] 98 % of control | [6] 94 % of control

CC1(C)C(=NN)C(C)(C)C1O (stereo unspecified)
inactive: [21] 101 % of control | [22] 104 % of control | dose: 300.0 mg/kg/injection, schedule: Q01DX001 (ip), vehicle: saline 96 % of control

CC(=O)C(C(C)=O)c1cc(NS(=O)(=O)N(C)C)ccc1NS(=O)(=O)N(C)C
inactive: dose: 75.0 mg/kg/injection, schedule: Q04DX003 (ip), vehicle: Klucel (hydroxypropylcellulose) (HPC) 89 % of control | dose: 150.0 mg/kg/injection, schedule: Q04DX003 (ip), vehicle: Klucel (hydroxypropylcellulose) (HPC) 108 % of control | dose: 300.0 mg/kg/injection, schedule: Q04DX003 (ip), vehicle: Klucel (hydroxypropylcellulose) (HPC) 96 % of control

Cc1cc(CC(Cl)(C(F)(F)F)C(F)(F)F)cc(CC(Cl)(C(F)(F)F)C(F)(F)F)n1
inactive: dose: 12.5 mg/kg/injection, schedule: Q01DX009 (ip), vehicle: saline with Tween-80 108 % of control | dose: 25.0 mg/kg/injection, schedule: Q01DX009 (ip), vehicle: saline with Tween-80 106 % of control

CC(C)C1(Cc2ccccc2)C(=O)NC(=S)NC1=O
inactive: [21] 95 % of control | [22] 93 % of control

COc1ccc2c(c1)CCC1C2CCC2(C)C(=O)C(n3cnc4c(=S)nc[nH]c43)CC12 (stereo unspecified)
inactive: dose: 100.0 mg/kg/injection, schedule: Q01DX001 (sc), vehicle: steriod suspending solution 106 % of control | dose: 200.0 mg/kg/injection, schedule: Q01DX001 (sc), vehicle: steriod suspending solution 110 % of control | dose: 400.0 mg/kg/injection, schedule: Q01DX001 (sc), vehicle: steriod suspending solution 110 % of control

CCCCCCCCCC(=O)OCC(COC(=O)CCCCCCCCC)OC(=O)CCCCCCCCC
inactive: dose: 100.0 mg/kg/injection, schedule: Q01DX009 (sc), vehicle: olive oil, sesame oil, peanut oil 103 % of control | dose: 100.0 mg/kg/injection, schedule: Q04DX003 (sc), vehicle: olive oil, sesame oil, peanut oil 101 % of control | dose: 200.0 mg/kg/injection, schedule: Q01DX009 (sc), vehicle: olive oil, sesame oil, peanut oil 101 % of control | dose: 200.0 mg/kg/injection, schedule: Q04DX003 (sc), vehicle: olive oil, sesame oil, peanut oil 97 % of control | dose: 400.0 mg/kg/injection, schedule: Q01DX009 (sc), vehicle: olive oil, sesame oil, peanut oil 104 % of control | dose: 400.0 mg/kg/injection, schedule: Q04DX003 (sc), vehicle: olive oil, sesame oil, peanut oil 104 % of control

CCC1CN2CCc3cc(OC)c(OC)cc3C2CC1CC1c2cc(OC)c(OC)cc2CCN1C(=O)C1CCCN1C(=O)OCc1ccccc1 (stereo unspecified)
inactive: [1] 97 % of control | [2] 101 % of control | [3] 106 % of control | dose: 400.0 mg/kg/injection, schedule: Q01DX001 (ip), vehicle: carboxymethylcellulose (CMC) 97 % of control

CCN(CC)C(=S)N1CCCCC1
inactive: [7] 99 % of control | [12] 100 % of control | [8] 105 % of control | [13] 90 % of control | [9] 108 % of control | [14] 110 % of control
